Measurements published in ChEMBL document CHEMBL1201862, “PubChem BioAssay data set” (2004).
Calls of active or inactive are those of the source.

Key:
Beta Lactamase = Beta Lactamase (Pseudomonas aeruginosa, UniProt Q932Y6); experiment: BLA reporter interference, concentration series – BLA reporter cells, FRET fluorescence, artefact control for TLR9-MyD88 binding inhibitor project, dose response (AID 588341); format: cell-based;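 note: cell based assay in CHO-K1 cells stably expressing beta-lactamase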
Beta Lactamase, sequence (Q932Y6 whole entry, the tested form may be a part): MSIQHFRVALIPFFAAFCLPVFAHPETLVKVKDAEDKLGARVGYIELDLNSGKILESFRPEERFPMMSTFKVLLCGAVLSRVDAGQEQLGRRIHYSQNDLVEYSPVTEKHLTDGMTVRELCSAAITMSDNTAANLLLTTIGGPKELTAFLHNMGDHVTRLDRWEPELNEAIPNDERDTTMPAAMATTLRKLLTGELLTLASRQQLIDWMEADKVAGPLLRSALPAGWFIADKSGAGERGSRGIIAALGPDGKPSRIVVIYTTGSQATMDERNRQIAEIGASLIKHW

[1] = molecular target: T1, RNA-binding protein pos-1 (Caenorhabditis elegans, UniProt G5EF15); experiment: disruptors of C. elegans POS-1 RNA interaction – biochemical, fluorescence polarization, dose response (AID 1964);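 note: purified POS-1 fused to maltose binding protein made in E. coli; potency of compounds blocking POS-1 binding to fluorescent RNA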
T1 sequence (G5EF15 whole entry): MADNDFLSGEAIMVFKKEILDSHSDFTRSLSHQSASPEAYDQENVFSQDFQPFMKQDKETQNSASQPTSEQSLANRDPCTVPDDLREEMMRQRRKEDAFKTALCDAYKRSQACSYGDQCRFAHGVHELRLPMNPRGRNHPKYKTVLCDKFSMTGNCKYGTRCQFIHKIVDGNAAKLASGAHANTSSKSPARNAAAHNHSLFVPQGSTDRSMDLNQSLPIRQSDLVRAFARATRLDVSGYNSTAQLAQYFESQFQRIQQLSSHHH

[2] = molecular target: T2, Corticotropin-releasing factor receptor 2/Corticotropin-releasing factor-binding protein (Homo sapiens, UniProt P24387+Q13324); experiment: activators of CRF receptor 2 with binding protein – uHTS hits, confirmation (AID 602473); format: functional; settings: read-out: EC50_Mean
T2 sequence (Q13324 whole entry): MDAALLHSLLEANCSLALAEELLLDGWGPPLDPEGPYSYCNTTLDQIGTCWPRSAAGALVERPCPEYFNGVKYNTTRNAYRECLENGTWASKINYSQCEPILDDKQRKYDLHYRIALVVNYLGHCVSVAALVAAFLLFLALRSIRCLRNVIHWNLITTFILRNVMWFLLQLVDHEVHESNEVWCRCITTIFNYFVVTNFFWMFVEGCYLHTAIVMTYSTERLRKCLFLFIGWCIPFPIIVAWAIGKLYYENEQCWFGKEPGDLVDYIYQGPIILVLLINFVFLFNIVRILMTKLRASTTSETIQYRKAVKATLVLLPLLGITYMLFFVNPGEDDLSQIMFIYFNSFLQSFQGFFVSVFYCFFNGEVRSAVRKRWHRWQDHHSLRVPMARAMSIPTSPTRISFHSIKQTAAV
T2 sequence (P24387 whole entry): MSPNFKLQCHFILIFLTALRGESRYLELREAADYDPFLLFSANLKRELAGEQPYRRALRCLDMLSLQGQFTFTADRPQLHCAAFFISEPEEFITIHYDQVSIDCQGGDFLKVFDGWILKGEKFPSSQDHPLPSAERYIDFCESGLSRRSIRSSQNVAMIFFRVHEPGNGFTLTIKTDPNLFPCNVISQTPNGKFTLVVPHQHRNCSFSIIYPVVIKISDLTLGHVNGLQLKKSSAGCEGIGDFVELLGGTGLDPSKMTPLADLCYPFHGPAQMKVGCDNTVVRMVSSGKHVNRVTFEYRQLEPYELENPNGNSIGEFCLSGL

CHO = CHO cell viability loss, potency – luminescence, cytotoxicity control for TLR9-MyD88 binding inhibitor project, dose response (AID 588339); format: functional, cell-based, hamster; settings: Cricetulus griseus;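 note: CHO cells stably coexpressing TLR9 and MyD88 fusions from primary screen; compound exposure lasted 48 hours before viability readout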
[3] = molecular target: T3, Zinc finger protein mex-5 (Caenorhabditis elegans, UniProt Q9XUB2); experiment: potency of MEX-5 RNA-binding blockers – biochemical, C. elegans, fluorescence polarization, dose response (AID 1960)
T3 sequence (Q9XUB2 whole entry): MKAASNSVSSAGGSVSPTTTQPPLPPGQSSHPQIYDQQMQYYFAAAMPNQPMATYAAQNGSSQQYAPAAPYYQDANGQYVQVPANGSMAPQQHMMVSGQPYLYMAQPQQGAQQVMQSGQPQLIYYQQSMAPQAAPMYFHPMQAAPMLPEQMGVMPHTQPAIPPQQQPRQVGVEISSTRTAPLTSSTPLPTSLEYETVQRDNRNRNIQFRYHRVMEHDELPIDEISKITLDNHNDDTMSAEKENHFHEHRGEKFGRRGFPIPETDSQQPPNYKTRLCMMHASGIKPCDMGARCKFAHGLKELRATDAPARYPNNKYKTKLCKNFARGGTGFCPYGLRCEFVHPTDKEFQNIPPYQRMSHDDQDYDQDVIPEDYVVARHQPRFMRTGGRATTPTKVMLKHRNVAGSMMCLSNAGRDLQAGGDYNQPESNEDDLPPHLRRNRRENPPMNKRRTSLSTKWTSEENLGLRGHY

CAAX prenyl protease 2 = CAAX prenyl protease 2 (Homo sapiens, UniProt Q9Y256); experiment: inhibition of Ras-converting CAAX protease Rce1 – biochemical, yeast membranes, quenched-peptide fluorescence, cherry-pick, dose response (AID 588849)
CAAX prenyl protease 2, sequence (Q9Y256 whole entry): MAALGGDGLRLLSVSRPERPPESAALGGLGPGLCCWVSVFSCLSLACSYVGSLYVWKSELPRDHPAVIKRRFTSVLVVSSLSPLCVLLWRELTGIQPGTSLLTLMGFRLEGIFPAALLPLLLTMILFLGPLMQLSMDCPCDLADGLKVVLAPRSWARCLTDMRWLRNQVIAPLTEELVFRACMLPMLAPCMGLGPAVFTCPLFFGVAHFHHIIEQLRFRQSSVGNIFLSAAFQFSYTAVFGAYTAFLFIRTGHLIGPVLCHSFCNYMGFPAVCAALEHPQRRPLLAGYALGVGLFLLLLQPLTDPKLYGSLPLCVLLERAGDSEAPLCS

[4] = molecular target: T4, Apoptotic protease-activating factor 1 (Homo sapiens, UniProt O14727); experiment: SAR analysis of small molecule inhibitors of Apaf-1 in a Fluorescent assay.; format: functional; settings: read-out: IC50_Mean
T4 sequence (O14727 whole entry): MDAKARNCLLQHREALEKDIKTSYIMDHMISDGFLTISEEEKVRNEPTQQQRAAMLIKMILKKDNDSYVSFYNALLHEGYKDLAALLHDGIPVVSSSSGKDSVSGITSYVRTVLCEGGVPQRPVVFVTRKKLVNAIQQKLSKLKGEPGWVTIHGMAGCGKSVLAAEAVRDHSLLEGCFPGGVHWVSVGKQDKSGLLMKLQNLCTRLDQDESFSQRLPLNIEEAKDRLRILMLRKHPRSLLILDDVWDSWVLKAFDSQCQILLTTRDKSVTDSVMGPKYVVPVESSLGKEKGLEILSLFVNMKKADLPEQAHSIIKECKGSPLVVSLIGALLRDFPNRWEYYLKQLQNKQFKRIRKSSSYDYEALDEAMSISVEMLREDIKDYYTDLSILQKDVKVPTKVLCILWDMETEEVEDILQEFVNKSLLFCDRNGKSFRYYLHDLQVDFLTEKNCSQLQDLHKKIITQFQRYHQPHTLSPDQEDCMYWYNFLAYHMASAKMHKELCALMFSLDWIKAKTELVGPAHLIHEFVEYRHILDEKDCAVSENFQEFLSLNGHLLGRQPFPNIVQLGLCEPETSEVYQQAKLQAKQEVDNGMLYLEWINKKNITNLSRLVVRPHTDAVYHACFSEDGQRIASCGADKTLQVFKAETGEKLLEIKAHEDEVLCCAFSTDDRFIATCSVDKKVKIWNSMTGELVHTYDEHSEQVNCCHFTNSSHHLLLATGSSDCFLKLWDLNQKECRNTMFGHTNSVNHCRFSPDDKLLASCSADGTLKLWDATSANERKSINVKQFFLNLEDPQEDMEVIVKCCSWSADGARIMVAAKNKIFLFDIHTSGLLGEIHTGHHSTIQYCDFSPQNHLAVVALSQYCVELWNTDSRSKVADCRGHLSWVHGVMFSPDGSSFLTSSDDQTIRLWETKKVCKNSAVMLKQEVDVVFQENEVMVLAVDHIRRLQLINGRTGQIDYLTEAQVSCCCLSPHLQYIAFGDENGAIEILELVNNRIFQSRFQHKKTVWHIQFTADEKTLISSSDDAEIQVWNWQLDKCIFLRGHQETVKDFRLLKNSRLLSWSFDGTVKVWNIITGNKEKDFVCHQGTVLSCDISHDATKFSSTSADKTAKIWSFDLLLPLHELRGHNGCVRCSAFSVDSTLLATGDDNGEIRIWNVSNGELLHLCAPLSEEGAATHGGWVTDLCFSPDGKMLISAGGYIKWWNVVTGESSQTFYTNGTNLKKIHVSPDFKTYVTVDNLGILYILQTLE

[5] = molecular target: T5, Endoribonuclease toxin MazF (Escherichia coli K-12, UniProt P0AE70); experiment: substrate-only fluorescence increase artefacts – biochemical, single-stranded RNase substrate, counter-screen for MazEF activator project, dose response (AID 588502); format: functional
T5 sequence (P0AE70 whole entry): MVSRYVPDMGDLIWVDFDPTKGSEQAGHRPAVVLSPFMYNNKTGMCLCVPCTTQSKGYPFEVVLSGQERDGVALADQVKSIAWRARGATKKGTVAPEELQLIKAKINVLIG

[6] = molecular target: T5, Endoribonuclease toxin MazF; experiment: activation of MazEF endoribonuclease cleavage – biochemical, fluorescence, single-stranded RNA substrate, uHTS hits, dose response (AID 588481); format: functional
HEK293 [7] = experiment: cells; settings: Homo sapiens
[8] = Fluorescence-based cell-based high throughput dose response assay for inhibitors of the interaction of nucleotide-binding oligomerization domain containing 2 (NOD2) and the receptor-interacting serine-threonine kinase 2 (RIPK2).; format: functional; settings: Homo sapiens
HEK293 [9] = experiment: cells; settings: Homo sapiens; remark: listed apart in the source
[10] = molecular target: FAD-linked sulfhydryl oxidase ALR (Homo sapiens, UniProt P55789); experiment: ALR-catalysed DTT oxidation blockers – biochemical, H2O2 detection, luminescence, cherry-pick, dose response (AID 493248)
FAD-linked sulfhydryl oxidase ALR, sequence (P55789 whole entry): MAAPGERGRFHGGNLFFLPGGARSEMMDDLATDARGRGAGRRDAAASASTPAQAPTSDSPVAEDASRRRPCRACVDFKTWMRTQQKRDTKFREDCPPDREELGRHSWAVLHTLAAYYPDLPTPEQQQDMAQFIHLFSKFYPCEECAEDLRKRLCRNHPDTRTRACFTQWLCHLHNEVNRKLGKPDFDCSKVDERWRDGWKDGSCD

Escherichia coli = experiment: microbe, parasite or virus in culture
[11] = off-target signal loss in HeLa-CEM21 co-culture – HeLa F-luc CTL cells, cherry-picked, counter-screen for HIV-1 Env fusion inhibitor project, dose response (AID 652040); format: functional, cell-based;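 note: potency for signal decrease marking cytotoxic or nonspecific inhibition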
[12] = blockers of HIV-1 ZM109 envelope-driven cell-cell fusion – HeLa effector, CEM target cells, luciferase, cherry-pick, dose response (AID 652058); format: functional, cell-based;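 note: luciferase signal from HIV-1 Env mediated cell-cell fusion of effector and target cells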
[13] = blockers of HIV-1 envelope-mediated cell-cell fusion – cherry-pick, dose response (AID 652057); format: functional, cell-based
[14] = HIV-1 AD8 envelope cell-cell fusion blockers – cherry-pick, dose response (AID 652062); format: functional, cell-based;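 note: luciferase signal from cell-cell fusion driven by HIV-1 clade B AD8 Env; potency is for inhibitors of fusion seen as a drop in luminescence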

In the case of `COc1ccc(C(=O)c2sc3nc(C)cc(-c4cccs4)c3c2N)cc1`, the IC50 (Beta Lactamase) was 3.85 µM (active), the EC50 [1] was 16.9 µM (active) and the EC50 [2] was 6.58 µM (active). The IC50 (CHO) was > 49.7 µM (inactive) and the EC50 [3] was 11 µM (active).

With `CCN(CC)c1ccc(/C=N/NC(=O)C(O)(c2ccccc2)c2ccccc2)o1` the AC50 (CAAX prenyl protease 2) was > 100 µM (inactive).

With `O=C1c2cc(Cl)ccc2-n2c1nc1ccccc1c2=O` the IC50 [4] was 60.3 µM (active).

In the case of `Cc1cccc(N=Nc2c(O)[nH]c3ccc(F)cc23)c1`, the EC50 [5] was > 99 µM (inactive) and the EC50 [6] was 38.7 µM (inactive).

For `O=[N+]([O-])c1ccc(Sc2ccncn2)c([N+](=O)[O-])c1`, the EC50 (HEK293 [7]) was > 59.6 µM (inactive), the IC50 [8] was 7.56 µM (active) and the EC50 (HEK293 [9]) was > 59.6 µM (inactive).

For `Cc1ccc(SCc2noc(C(=O)NC(C)C)c2C(=O)O)cc1C`, the AC50 [10] was 4.26 µM (active) and the AC50 (Escherichia coli) was 65.6 µM (active).

With `CCN(C[C@H]1N[C@@](CC)(C(=O)OC)[C@H]2C(=O)N(Cc3ccccc3)C(=O)[C@@H]12)S(=O)(=O)c1ccc(C)cc1` the AC50 [11] was 3.4 µM (active), the AC50 [12] was 2.37 µM (active) and the EC50 (HEK293 [7]) was > 59.6 µM (inactive). For the same compound, the EC50 (HEK293 [9]) was > 59.6 µM (inactive), the AC50 [13] was 2.36 µM (active) and the AC50 [14] was 4.32 µM (active).

For `CN(N=Cc1ccc([N+](=O)[O-])cc1)c1ccccn1`, the EC50 [5] was 37.8 µM (inactive) and the EC50 [6] was 51.8 µM (inactive).
